Results from patent US20210275498A1, “IMIDAZOLYL ETHANAMIDE PENTANDIOIC ACID FOR USE IN THERAPY OF SYMPTOMS RELATED TO EXPOSURE TO LETHAL RADIATION” (priority 2018, published 2021).

How the values were obtained:
Format in all cases: in vivo
C57BL/6 mice [1] = assay: Gross pathology and histopathology (testes degeneration, bone marrow cellularity) after whole-body irradiation; set-up: key to Supporting variable: Testes degradation (trend): positive trend (descriptively) +; negative trend (descriptively) −; no difference (descriptively) 0; settings: for severity of testes degradation compared to Group 2: Day 14
Description: (§1) FIG. 13 Testes. (A): Percentage of severity of testes degeneration according to four categories (minimal, mild, moderate and marked) in group 2 (VL (POx1); 2), group 3 (ML (IPx2); 3), group 4 (ML (POx2); 4) and group 5 (ML (POx1); 5). (B): Percentage of severity of testes degeneration according to four categories (minimal, mild, moderate and marked) in group 2 (VL (POx1);2), 6 (GL (SCx1); 6) and 7 (M/GL (PO/SCx1); 7). (C): Percentage of severity of testes degeneration according to four categories (minimal, mild, moderate and marked) in group 8 (VH (POx1); 8 and 9 (MH (POx1); 9).
as §1, with “14 Bone marrow cellularity.” for “13 Testes.”, “bone marrow cellularity decrease” for “severity of testes degeneration”

C57BL/6 mice [2] = assay: as above; set-up: key to Supporting variable: Bone marrow celluarity (trend) / Supporting variable: Testes degradation (trend): positive trend (descriptively) +; negative trend (descriptively) −; no difference (descriptively) 0
C57BL/6 mice [3] = assay: Mortality / survival to Day 30 after whole-body irradiation (5.8 Gy or 6.0 Gy); settings: for Quantity ratio of survival probability (dose reduction factor, DRF), day 30, relative to control group: vs VL (POx1)
Description: Based on a previously reported study (Williams et al. 2010, Plett et al. 2012, Chua et al. 2014, Singh et al., 2015), the mouse model was developed to investigate LD25 and LD50. The whole-body irradiation and selected dose serve as a translational in vivo model mimicking possible radiation exposure to humans following a nuclear incident.
Animals (C57BL/6 mice) were supplied by Jackson Laboratories (Bar Harbor, Me. facility). Animals were maintained at SNBL USA (Everett, Wash. facility) as stock prior to study assignment and were screened for health by veterinary staff prior to use on study. 205 animals were assigned to treatment groups.
Oral application of Myelo001 would be conducive for nuclear or other radiation incidents and was chosen for this study. […] The human equivalent dose is estimated to be 4 mg/kg based on allometric calculations.
Based on the ARS Scoring SNBL SOP, if the sum of the three parameter scores totaled 8 or higher, the animal was considered moribund and was euthanized with an unscheduled necropsy performed according to the moribund animal SOP.
Cageside mortality checks were conducted per SOP, twice daily after Day −3. Morning and afternoon checks began 2 to 3 hours after the completion of the respective ARS scorings. Individual assessments were only documented for apparently moribund animals by re-scoring, or for found dead animals by removal.
Survival data were summarized descriptively and graphically using the Kaplan-Meier method. Further, death rates were tabulated by treatment. The equality of two or more survivor curves was tested with log rank tests. In addition, Cox-regression models were used to estimate hazard ratios, p-values and 95% confidence intervals (95% CI).
The focus of the survival analysis is irradiation related death between irradiation on Day 0 and Day 30. Thus, the scheduled necropsies on Day 7 and Day 14 or deaths unrelated to radiation (Animals 2041, 9012 and 9021) were considered as censored events.

[4] = Group 3 ML (IPx2): 25 mg/kg IP, Day −3 to 0 (6x), prophylactic, 5.8 Gy
[5] = Group 4 ML (POx2): 25 mg/kg per os, Day −3 to 0 (6x), prophylactic, 5.8 Gy
[6] = Group 5 ML (POx1): 50 mg/kg per os SID Day −2, −1, 0, prophylactic, 5.8 Gy
[7] = Group 9 MH (POx1): 50 mg/kg per os SID Day 1, 2, 3, therapeutic, 6.0 Gy
[8] = Day 14 necropsy, Group 6: 5.8 Gy, subcutaneous, 0.34 mg/kg, Days 1, 2 and 3
[9] = Group 6 GL (SCx1): 0.34 mg/kg SC SID Day 1, 2, 3, therapeutic, 5.8 Gy

O=C(O)CCCC(=O)NCCc1c[nH]cn1 [Myelo001, 5-{[2-(1H-imidazol-4-yl)ethyl]amino}-5-oxo-pentanoic acid]
severity of testes degradation compared to Group 2 (C57BL/6 mice [1]; [4]): reduced | severity of testes degradation compared to Group 2 (C57BL/6 mice [1]; [5]): reduced | severity of testes degradation compared to Group 2 (C57BL/6 mice [1]; [6]): reduced | Supporting variable: Testes degradation (trend) (C57BL/6 mice [1]; [5]): + | Supporting variable: Testes degradation (trend) (C57BL/6 mice [1]; [6]): + | Supporting variable: Testes degradation (trend) (C57BL/6 mice [1]; [7]): + | testes degeneration, proportion by severity category (C57BL/6 mice [2]; Day 14, n.s. (p=0.264), Group 9 MH (POx1): 50 mg/kg per os SID Day 1, 2, 3, therapeutic, 6.0 Gy): higher proportion of testes in minimal category | decreased cellularity of the bone marrow of both sternum and femur compared to vehicle-treated control Group 8 (C57BL/6 mice [2]; Day 14 and 30 necropsies, Group 9 MH (POx1): 50 mg/kg per os SID Day 1, 2, 3, therapeutic, 6.0 Gy): lower severity of decreased cellularity | bone marrow cellularity decrease, category (C57BL/6 mice [2]; Day 30, Group 3 ML (IPx2): 25 mg/kg IP, Day −3 to 0 (6x), prophylactic, 5.8 Gy): minimal category | Supporting variable: Bone marrow celluarity (trend) (C57BL/6 mice [2]; [4]): + | Supporting variable: Testes degradation (trend) (C57BL/6 mice [2]; [4]): + | decrease of bone marrow cellularity (C57BL/6 mice [2]; [5]): did not show any significant changes | Supporting variable: Bone marrow celluarity (trend) (C57BL/6 mice [2]; [6]): − | decrease of bone marrow cellularity (C57BL/6 mice [2]; [6]): did not show any significant changes | Supporting variable: Bone marrow celluarity (trend) (C57BL/6 mice [2]; [7]): + | organ weights data (C57BL/6 mice [2]; all test article groups): no test article-related changes | Dead (irradiation related deaths) (C57BL/6 mice [3]; [4]): 3 | Irradiation related death rate, Rate (per 100 Days) (C57BL/6 mice [3]; [4]): 1.30 per 100 Days | Survival after 30 days (Kaplan-Meier estimate) (C57BL/6 mice [3]; [4]): 0.54 | Time at Risk (C57BL/6 mice [3]; [4]): 231 days | Time to 10% death, Time (C57BL/6 mice [3]; [4]): 13 days | Hazard ratio (Cox regression, risk of radiation induced death) (C57BL/6 mice [3]; Group 3 ML (IPx2): 25 mg/kg IP, Day −3 to 0 (6x), prophylactic, 5.8 Gy, reference group VL (POx1), 2): 2.48 | Quantity ratio of survival probability (dose reduction factor, DRF), day 30, relative to control group (C57BL/6 mice [3]; Group 3 ML (IPx2): 25 mg/kg IP, Day −3 to 0 (6x), prophylactic, 5.8 Gy, 2): 0.7 | Dead (irradiation related deaths) (C57BL/6 mice [3]; [5]): 6 | Irradiation related death rate, Rate (per 100 Days) (C57BL/6 mice [3]; [5]): 0.96 per 100 Days | Time at Risk (C57BL/6 mice [3]; [5]): 627 days | Time to 10% death, Time (C57BL/6 mice [3]; [5]): 15 days | Hazard ratio (Cox regression, risk of radiation induced death) (C57BL/6 mice [3]; Group 4 ML (POx2): 25 mg/kg per os, Day −3 to 0 (6x), prophylactic, 5.8 Gy, reference group VL (POx1), 2): 1.49 | Dead (irradiation related deaths) (C57BL/6 mice [3]; [6]): 3 | Irradiation related death rate, Rate (per 100 Days) (C57BL/6 mice [3]; [6]): 0.44 per 100 Days | Time at Risk (C57BL/6 mice [3]; [6]): 680 days | Time to 10% death, Time (C57BL/6 mice [3]; [6]): 21 days | Hazard ratio (Cox regression, risk of radiation induced death) (C57BL/6 mice [3]; Group 5 ML (POx1): 50 mg/kg per os SID Day −2, −1, 0, prophylactic, 5.8 Gy, reference group VL (POx1), 2): 0.64 | Dead (irradiation related deaths) (C57BL/6 mice [3]; [7]): 3 | Irradiation related death rate, Rate (per 100 Days) (C57BL/6 mice [3]; [7]): 0.48 per 100 Days | Time at Risk (C57BL/6 mice [3]; [7]): 611 days | Time to 10% death, Time (C57BL/6 mice [3]; [7]): 23 days | survival (C57BL/6 mice [3]; Group 9 MH (POx1): 50 mg/kg per os SID Day 1, 2, 3, therapeutic, 6.0 Gy (LD50/30), control Group 8 56%): 86% | Hazard ratio (Cox regression, risk of radiation induced death) (C57BL/6 mice [3]; Group 9 MH (POx1): 50 mg/kg per os SID Day 1, 2, 3, therapeutic, 6.0 Gy, reference group VH (POx1), 8): 0.32

B1: G-CSF: Neupogen (Filgrastim; Granulocyte colony-stimulating factor; G-CSF), positive control article, Amgen (protein, UniProt P09919 31-207, looked up)
Granulocyte …: TPLGPASSLPQSFLLKCLEQVRKIQGDGAALQEKLVSECATYKLCHPEELVLLGHSLGIPWAPLSSCPSQALQLAGCLSQLHSGLFLYQGLLQALEGISPELGPTLDTLQLDVADFATTIWQQMEELGMAPALQPTQGAMPAFASAFQRRAGGVLVASHLQSFLEVSYRVLRHLAQP
modifications: filgrastim
notes: Neupogen (Filgrastim; Granulocyte colony-stimulating factor; G-CSF), positive control article, Amgen
testes degeneration, proportion by severity category (C57BL/6 mice [1]; Day 14, insignificant (p=0.078), Group 6 GL (SCx1): 0.34 mg/kg SC SID Day 1, 2, 3, therapeutic, 5.8 Gy): higher proportions of testes in the minimal category | gross pathology: findings not typical of acute radiation syndrome (C57BL/6 mice [2]; [8]): cysts in spleen were observed | gross pathology: lesions typical of acute radiation syndrome (red discoloration of organs) (C57BL/6 mice [2]; [8]): no red discoloration in the brain, testes | bone marrow cellularity decrease, category (C57BL/6 mice [2]; Day 30, insignificant, Group 6 GL (SCx1): 0.34 mg/kg SC SID Day 1, 2, 3, therapeutic, 5.8 Gy): minimal category in sternum and no marked category in femur bone marrow | Supporting variable: Bone marrow celluarity (trend) (C57BL/6 mice [2]; [9]): + | Supporting variable: Testes degradation (trend) (C57BL/6 mice [2]; [9]): + | Dead (irradiation related deaths) (C57BL/6 mice [3]; [9]): 1 | Irradiation related death rate, Rate (per 100 Days) (C57BL/6 mice [3]; [9]): 0.42 per 100 Days | Survival after 30 days (Kaplan-Meier estimate) (C57BL/6 mice [3]; [9]): 0.90 | Time at Risk (C57BL/6 mice [3]; [9]): 237 days | Time to 10% death, Time (C57BL/6 mice [3]; [9]): 12 days | Hazard ratio (Cox regression, risk of radiation induced death) (C57BL/6 mice [3]; Group 6 GL (SCx1): 0.34 mg/kg SC SID Day 1, 2, 3, therapeutic, 5.8 Gy, reference group VL (POx1), 2): 0.72 | Quantity ratio of survival probability (dose reduction factor, DRF), day 30, relative to control group (C57BL/6 mice [3]; Group 6 GL (SCx1): 0.34 mg/kg SC SID Day 1, 2, 3, therapeutic, 5.8 Gy, 2): 1.1
